Assay results from patent publication US20130338264A1, “CONDENSATION PRODUCTS OF MELAMINE AND PHENYLPHOSPHONIC ACID AND THEIR USE AS FLAME RETARDANTS” (BASF SE, priority 2011, published 2013).

What was measured:
Solubility in water = format: physicochemical
Procedure: Solubility in water: 11 g/L (25° C.); 70 g/L (95° C.)

[1] = Decomposition by TGA (thermogravimetric analysis); format: physicochemical; conditions: for TGA onset [° C.]: overview table
Procedure: Melamine hydrogenphenylphosphonate (MPPO) from example 1 (10.000 g, 0.04 mol) is tempered in a glass tube at 300° C./5·10^−1 mbar for 2 h and additional for 22 h. The mass balance is monitored for the residual by gravimetrically methods. The obtained product is characterized by phosphorous content, 1,3,5-triazine components and thermogravimetry.
Based on the results of the thermo gravimetric analysis (TGA) of the compounds in examples A1-A5 one can conclude that the condensation of melamine hydrogene phenyphosphonate occurs in a two step mode. […] The mode of condensation therefore may be controlled in a balanced thermometric and stoichiometric approach. According to example A2-A4 in a temperature range of 280-300° C. melam formation is favoured. However, other temperature profiles could be more suitable for other stoichiometric ratios. The increasing phosphorous content in the compounds of example A2-A3 in comparison to example A5 points to the condensation of phenylphosphonic anions.

| Substance | Solubility in water (Solubility in water; 25° C.) [mg/mL] | Solubility in water (Solubility in water; 95° C.) [mg/mL] | Decomposition by TGA: onset [1] [°C] | TGA Mass loss at T ° C. [%] ([1]; T = 320 ° C.) | Decomposition by TGA: mass loss at onset ([1]; at onset 277° C.) [%] | TGA onset [° C.] [1] [°C] | TGA Mass loss at T ° C. [%] ([1]; T = 372 ° C.) | Decomposition by TGA: mass loss at onset ([1]; at onset 345° C., 1 molÄq H2O) [%] | Decomposition by TGA: mass loss at onset ([1]; at onset 372° C.) [%] | Decomposition by TGA: onset (second step) ([1]; second onset printed) [°C] |
| --- | --- | --- | --- | --- | --- | --- | --- | --- | --- | --- |
| Melamine Phenylhydrogenphosphonate (MPPO) [Example A1] | 11 | 70 | 277 | 320 [−10%] | −12 | 277 |  |  |  |  |
| Melam Phenylhydrogenphosphonate [Example A5] |  |  | 345 |  |  | 345 | 372 [−15%] | −4.5 | −55 | 372 |
